# From paper PMC12369479 (Journal of Experimental Botany, 2025)
# How the values were obtained:
# [1] = target: ZmADK3 (Zea mays, UniProt A0A1D6E5Z5); assay: ADK activity, coupled reaction with PK and LDH; type: biochemical
# Procedure: Substrate analogs were purchased from Sigma-Aldrich (www.sigmaaldrich.com). […] In this assay, PK converts ADP produced by ADK and phosphoenolpyruvate (PEP) to pyruvate. Subsequently, LDH then converts pyruvate to lactate using the coenzyme NADH, with the conversion monitored at 340 nm. The reaction was conducted in 50 mM Tris–HCl buffer at pH 7.5, containing 50 mM KCl, 6 mM MgCl2, 300 µM PEP, 200 µM NADH, 10 mM ATP, 2 U of PK, and 2.5 U of LDH, using various nucleoside substrates. Kinetic constants were determined using GraphPad Prism 8.0 software (www.graphpad.com). Each measurement was performed six times using repetitive purified enzymes. […] The reaction mixture comprised 50 mM Tris–HCl pH 7.5, 5 mM MgCl2, 0.5 mM DTT, 30 mM NaF, 5 mM ATP, 40 µM substrate, and 2–150 ng of purified ADK, depending on the isoform. The reaction was incubated at 30 °C for up to 1 h.
# [2] = target: T1, PpADK1 (Physcomitrium patens, UniProt O49923); assay: Binding affinity by microscale thermophoresis (MST); parameters: species or system Physcomitrella patens; conditions: 50 mM HEPES pH 7.5, 1 mM MgCl2, first or only binding event, read-out: KD
# T1 construct: made in house; host or cells: E. coli T7 Express Iq
# Procedure: (§1) The microscale thermophoresis (MST) method was used to determine the binding affinity of various ribosides for ZmADK2 and PpADK1. Proteins were fluorescently labeled with RED-tris-NTA dye (www.nanotemper-technologies.com) using a 1:1 dye/protein molar ratio. The labeled protein was adjusted to 100–300 nM in 50 mM HEPES buffer pH 7.5, 1 mM MgCl2, and 0.2% Tween. Measurements were performed in premium capillaries on a Monolith NT.115 instrument at 30 °C with 5 s/30 s/5 s laser off/on/off times, respectively, with continuous sample fluorescence recording. Thermal stability was measured by nano-differential scanning fluorimetry on a Prometheus NT.48 instrument (www.nanotemper-technologies.com) in various buffers covering a pH (7.0–9.5) and temperature range (25–95 °C), with a heating rate of 1 °C min^–1, and using NT melting control software. Protein unfolding was measured by detecting the temperature-induced change in tryptophan fluorescence intensity at emission wavelengths of 330±5 nm and 350±5 nm. The melting temperature (Tm) was deduced from the maximum of the first derivative of the fluorescence ratios F350/F330.
# [3] = target: ZmADK3 R132A variant (Zea mays, UniProt A0A1D6E5Z5, R132A); assay: ADK activity, coupled reaction with PK and LDH; type: biochemical; conditions: 100 µM Ado, 10 mM ATP, 30 °C
# Procedure: (§2) All ZmADK3 mutants were cloned by 30 cycle PCRs using tail-to-tail oriented phosphorylated primers, with the mutation being located at the 5′ end of one of the primers. The following mutants were cloned using the primers given in Supplementary Table S1: D19A, R132A, N222A, E225A, N295A, and D299A. The products were treated with DpnI restriction enzyme, gel purified, and ligated using T4 DNA ligase (www.thermofisher.com). Clones were transformed into T7 express I^qE. coli competent cells.
# (§3) Substrate analogs were purchased from Sigma-Aldrich (www.sigmaaldrich.com). The ADK activity was measured spectrophotometrically on an Agilent 8453 UV-Vis spectrophotometer (www.agilent.com) at 30 °C using a coupled reaction with pyruvate kinase (PK) and lactate dehydrogenase (LDH) (www.sigmaaldrich.com) ([Blondin et al., 1994]). In this assay, PK converts ADP produced by ADK and phosphoenolpyruvate (PEP) to pyruvate. Subsequently, LDH then converts pyruvate to lactate using the coenzyme NADH, with the conversion monitored at 340 nm. The reaction was conducted in 50 mM Tris–HCl buffer at pH 7.5, containing 50 mM KCl, 6 mM MgCl2, 300 µM PEP, 200 µM NADH, 10 mM ATP, 2 U of PK, and 2.5 U of LDH, using various nucleoside substrates. Kinetic constants were determined using GraphPad Prism 8.0 software (www.graphpad.com). Each measurement was performed six times using repetitive purified enzymes. The activities of all five ADKs were also measured by HPLC ([Moffatt et al., 1991]). The reaction mixture comprised 50 mM Tris–HCl pH 7.5, 5 mM MgCl2, 0.5 mM DTT, 30 mM NaF, 5 mM ATP, 40 µM substrate, and 2–150 ng of purified ADK, depending on the isoform. The reaction was incubated at 30 °C for up to 1 h. […] Similarly, the conversion of cytokinin ribosides to monophosphates was followed on a LiChrosphere 60 RP-Select B (5 µm) LiChroCART column 125-4 column equilibrated with 10 mM triethylamine at pH 5.4 plus 10% methanol, and stepwise eluted with 100% methanol.
# [4] = target: ZmADK3 D19A variant (Zea mays, UniProt A0A1D6E5Z5, D19A); assay: ADK activity, coupled reaction with PK and LDH; type: biochemical
# Procedure: as §2, §3
# [5] = target: ZmADK3 N295A variant (Zea mays, UniProt A0A1D6E5Z5, N295A); assay: ADK activity, coupled reaction with PK and LDH; type: biochemical; conditions: 100 µM Ado, 10 mM ATP, 30 °C
# Procedure: as §2, §3
# [6] = target: ZmADK3 N222A variant (Zea mays, UniProt A0A1D6E5Z5, N222A); assay: ADK activity, coupled reaction with PK and LDH; type: biochemical; conditions: 100 µM Ado, 10 mM ATP, 30 °C
# Procedure: as §2, §3
# [7] = target: ZmADK3 D299A variant (Zea mays, UniProt A0A1D6E5Z5, D299A); assay: ADK activity, coupled reaction with PK and LDH; type: biochemical; conditions: 100 µM Ado, 10 mM ATP, 30 °C
# Procedure: as §2, §3
# [8] = target: ZmADK3 E225A variant (Zea mays, UniProt A0A1D6E5Z5, E225A); assay: ADK activity, coupled reaction with PK and LDH; type: biochemical; conditions: 100 µM Ado, 10 mM ATP, 30 °C
# Procedure: as §2, §3
# [9] = target: T2, ZmADK2 (Zea mays, UniProt B4FFH8, T4S); assay: ADK activity, coupled reaction with PK and LDH; type: biochemical; conditions: ZmADK2; 100 µM substrate; 10 mM ATP; pH 7.5; 30 °C
# Procedure: as §3
# [10] = target: ZmADK2 and PpADK1; assay: Binding affinity by MST (summary for both enzymes); parameters: species or system Zea mays, Physcomitrella patens; conditions: range over ZmADK2 and PpADK1
# Procedure: as §1
# [11] = target: T2, ZmADK2; assay: Binding affinity by microscale thermophoresis (MST); conditions: MST
# Procedure: as §1
# [12] = test system: all five ADKs; assay: ADK kinetics, coupled reaction (summary for all isoforms); type: biochemical, Zea mays, Physcomitrella patens; conditions: range over all five ADKs
# Procedure: Substrate analogs were purchased from Sigma-Aldrich (www.sigmaaldrich.com). The ADK activity was measured spectrophotometrically on an Agilent 8453 UV-Vis spectrophotometer (www.agilent.com) at 30 °C using a coupled reaction with pyruvate kinase (PK) and lactate dehydrogenase (LDH) (www.sigmaaldrich.com) ([Blondin et al., 1994]). In this assay, PK converts ADP produced by ADK and phosphoenolpyruvate (PEP) to pyruvate. Subsequently, LDH then converts pyruvate to lactate using the coenzyme NADH, with the conversion monitored at 340 nm. The reaction was conducted in 50 mM Tris–HCl buffer at pH 7.5, containing 50 mM KCl, 6 mM MgCl2, 300 µM PEP, 200 µM NADH, 10 mM ATP, 2 U of PK, and 2.5 U of LDH, using various nucleoside substrates. Kinetic constants were determined using GraphPad Prism 8.0 software (www.graphpad.com). Each measurement was performed six times using repetitive purified enzymes. The activities of all five ADKs were also measured by HPLC ([Moffatt et al., 1991]). The reaction mixture comprised 50 mM Tris–HCl pH 7.5, 5 mM MgCl2, 0.5 mM DTT, 30 mM NaF, 5 mM ATP, 40 µM substrate, and 2–150 ng of purified ADK, depending on the isoform. The reaction was incubated at 30 °C for up to 1 h. […]
# Sequence of ZmADK3 (A0A1D6E5Z5 entry or part of it): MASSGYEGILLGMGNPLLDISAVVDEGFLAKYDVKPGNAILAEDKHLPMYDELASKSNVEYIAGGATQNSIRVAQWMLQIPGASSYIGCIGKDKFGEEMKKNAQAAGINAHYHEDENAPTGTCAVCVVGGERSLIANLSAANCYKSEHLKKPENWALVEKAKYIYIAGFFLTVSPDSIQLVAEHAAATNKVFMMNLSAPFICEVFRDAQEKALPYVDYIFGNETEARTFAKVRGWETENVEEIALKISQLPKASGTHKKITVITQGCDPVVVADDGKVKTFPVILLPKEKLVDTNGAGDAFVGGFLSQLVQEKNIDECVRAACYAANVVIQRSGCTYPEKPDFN
# T2 sequence (B4FFH8 1-342 T4S): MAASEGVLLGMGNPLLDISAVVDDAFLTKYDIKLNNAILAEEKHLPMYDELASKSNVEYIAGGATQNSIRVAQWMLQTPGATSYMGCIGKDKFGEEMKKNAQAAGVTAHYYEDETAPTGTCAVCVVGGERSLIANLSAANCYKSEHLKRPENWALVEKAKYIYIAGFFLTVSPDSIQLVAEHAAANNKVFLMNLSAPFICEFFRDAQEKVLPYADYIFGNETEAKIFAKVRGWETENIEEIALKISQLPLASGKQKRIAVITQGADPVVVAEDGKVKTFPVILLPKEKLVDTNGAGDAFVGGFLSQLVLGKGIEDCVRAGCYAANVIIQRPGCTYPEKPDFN
# Sequence of ZmADK3 D19A variant (A0A1D6E5Z5 entry or part of it D19A): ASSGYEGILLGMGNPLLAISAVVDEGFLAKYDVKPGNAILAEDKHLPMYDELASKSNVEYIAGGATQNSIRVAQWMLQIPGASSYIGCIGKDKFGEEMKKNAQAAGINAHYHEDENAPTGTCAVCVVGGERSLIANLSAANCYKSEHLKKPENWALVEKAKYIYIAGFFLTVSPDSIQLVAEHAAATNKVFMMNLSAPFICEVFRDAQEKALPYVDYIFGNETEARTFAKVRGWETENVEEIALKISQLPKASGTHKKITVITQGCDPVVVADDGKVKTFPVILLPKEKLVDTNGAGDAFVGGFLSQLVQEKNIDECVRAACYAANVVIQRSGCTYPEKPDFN
# Sequence of ZmADK3 R132A variant (A0A1D6E5Z5 entry or part of it R132A): as the sequence (A0A1D6E5Z5 entry or part of it D19A) above, with A18D, R131A counted along it
# Sequence of ZmADK3 N295A variant (A0A1D6E5Z5 entry or part of it N295A): as the sequence (A0A1D6E5Z5 entry or part of it D19A) above, with A18D, N294A counted along it
# Sequence of ZmADK3 E225A variant (A0A1D6E5Z5 entry or part of it E225A): as the sequence (A0A1D6E5Z5 entry or part of it D19A) above, with A18D, E224A counted along it
# Sequence of ZmADK3 N222A variant (A0A1D6E5Z5 entry or part of it N222A): as the sequence (A0A1D6E5Z5 entry or part of it D19A) above, with A18D, N221A counted along it
# T1 sequence (O49923 whole entry): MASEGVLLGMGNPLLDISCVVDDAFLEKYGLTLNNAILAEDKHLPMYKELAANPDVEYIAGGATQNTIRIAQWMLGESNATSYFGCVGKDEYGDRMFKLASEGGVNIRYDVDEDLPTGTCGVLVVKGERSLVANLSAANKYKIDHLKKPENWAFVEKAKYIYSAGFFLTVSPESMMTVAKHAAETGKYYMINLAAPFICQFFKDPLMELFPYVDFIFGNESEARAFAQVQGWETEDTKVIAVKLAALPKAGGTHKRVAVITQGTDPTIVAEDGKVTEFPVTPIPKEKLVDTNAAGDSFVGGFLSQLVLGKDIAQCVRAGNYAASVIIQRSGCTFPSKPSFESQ
# Sequence of ZmADK3 D299A variant (A0A1D6E5Z5 entry or part of it D299A): as the sequence (A0A1D6E5Z5 entry or part of it D19A) above, with A18D, D298A counted along it
smiles,measurement,setting,value
"Nc1ncnc2c1ncn2[C@@H]1O[C@H](CO)[C@@H](O)[C@H]1O [Ado, adenosine]",Specific activity,"[1]; WT ZmADK3, 100 µM Ado, 10 mM ATP, 30 °C",31.0±0.8 nkat mg^–1
same,Relative rate,"[1]; WT ZmADK3, 100 µM Ado, relative to WT",100.0%
same,Specific activity,"[1]; ZmADK3, 100 µM substrate, 10 mM ATP, pH 7.5, 30 °C",30.0±1.1 nmol s^–1 mg^–1
same,kcat,"[1]; ZmADK3, 10 mM ATP, pH 7.5, 30 °C",1.18±0.03 s^–1
same,Kd,[2],0.7 µM
same,Specific activity,[3],7.4±0.3 nkat mg^–1
same,reduction in specific activity,"[4]; D19A variant of ZmADK3 vs WT, Ado substrate",10 fold
same,Specific activity,"[4]; D19A, 100 µM Ado, 10 mM ATP, 30 °C",3.3±0.4 nkat mg^–1
same,Specific activity,[5],10.1±0.1 nkat mg^–1
same,Specific activity,[6],13.4±0.7 nkat mg^–1
same,Specific activity,[7],1.8±0.1 nkat mg^–1
same,Specific activity,[8],1.9±0.4 nkat mg^–1
same,Specific activity,[9],40.3±1.4 nmol s^–1 mg^–1
same,Kd,[10],0.4 to 0.7 µM
same,Kd,"[11]; KD, 50 mM HEPES pH 7.5, 1 mM MgCl2, first or only binding event",0.4 ± 0.14 µM
same,Kd,"[11]; second KD value, KD(2), second binding event (ATP site)",~1500 µM
same,Kd,"[11]; second KD value, second binding event (ATP site)",1480 ± 230 µM
same,Km,[12],0.5 to 0.7 µM
